Assay results: ChEMBL document CHEMBL3132744, “Structureactivity relationship studies of miniproteins targeting the androgen receptorcoactivator interaction” (Medchemcomm, 2013)
Square brackets hold non-standard residues; d marks the D form. Peptide text beside a SMILES is read from it. Phe(4-Cl) = N[C@@H](Cc1ccc(Cl)cc1)C(=O)O; Phe(2-Cl) = N[C@@H](Cc1ccccc1Cl)C(=O)O; Cha = N[C@@H](CC1CCCCC1)C(=O)O

Molecular target: T1, Androgen receptor (Homo sapiens, UniProt P10275)
T1 sequence (P10275 whole entry): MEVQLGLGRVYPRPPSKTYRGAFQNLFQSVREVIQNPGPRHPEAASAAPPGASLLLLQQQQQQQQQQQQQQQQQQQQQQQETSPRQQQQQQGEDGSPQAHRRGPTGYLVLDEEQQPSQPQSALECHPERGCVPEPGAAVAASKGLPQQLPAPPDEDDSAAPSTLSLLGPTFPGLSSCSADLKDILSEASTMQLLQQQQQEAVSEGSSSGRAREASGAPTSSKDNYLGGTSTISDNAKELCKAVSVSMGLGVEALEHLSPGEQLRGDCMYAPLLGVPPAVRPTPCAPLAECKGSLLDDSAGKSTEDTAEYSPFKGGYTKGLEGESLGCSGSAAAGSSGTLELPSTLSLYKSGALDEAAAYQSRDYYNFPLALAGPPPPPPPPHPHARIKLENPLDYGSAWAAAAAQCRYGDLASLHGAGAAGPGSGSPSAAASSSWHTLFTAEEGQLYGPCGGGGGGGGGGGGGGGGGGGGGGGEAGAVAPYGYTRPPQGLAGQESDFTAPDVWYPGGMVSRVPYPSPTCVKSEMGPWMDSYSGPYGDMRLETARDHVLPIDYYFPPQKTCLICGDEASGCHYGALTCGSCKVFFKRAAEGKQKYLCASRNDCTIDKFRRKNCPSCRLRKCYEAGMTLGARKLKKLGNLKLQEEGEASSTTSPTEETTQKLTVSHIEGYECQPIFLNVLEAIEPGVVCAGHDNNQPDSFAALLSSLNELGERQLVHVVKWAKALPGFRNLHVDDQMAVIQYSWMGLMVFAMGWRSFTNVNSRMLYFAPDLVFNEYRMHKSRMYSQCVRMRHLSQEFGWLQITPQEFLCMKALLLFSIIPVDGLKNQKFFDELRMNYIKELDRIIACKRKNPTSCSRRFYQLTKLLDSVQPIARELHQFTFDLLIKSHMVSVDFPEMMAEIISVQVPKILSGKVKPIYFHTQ
Test: Displacement of fluorescein-CSSRFESLFAGEKESR from human androgen receptor-LBD after 1 hr by fluorescence polarization assay

Structure (SMILES)	Ki
CC[C@H](C)[C@H](NC(=O)[C@H](CS)NC(=O)[C@H](CC(C)C)NC(=O)[C@H](CC(C)C)NC(=O)[C@H](CCC(=O)O)NC(=O)[C@H](CS)NC(=O)[C@H](CC(C)C)NC(=O)[C@H](CCCNC(=N)N)NC(=O)[C@@H](N)CC(N)=O)C(=O)N[C@@H](CCC(N)=O)C(=O)NCC(=O)N[C@H](C(=O)NCC(=O)N[C@@H](CC(=O)O)C(=O)N[C@H](C(=O)N[C@@H](CCCCN)C(=O)N[C@@H](C)C(=O)N[C@@H](CS)C(=O)N[C@@H](CCC(=O)O)C(=O)N[C@@H](Cc1c[nH]c2ccccc12)C(=O)N[C@@H](C)C(=O)N[C@@H](CS)C(=O)N[C@@H](CCC(N)=O)C(=O)O)C(C)C)[C@@H](C)O (H-NRLCELLCIQGTGDVKACEWACQ-OH)	13000 nM
CC[C@H](C)[C@H](NC(=O)[C@H](CS)NC(=O)[C@H](Cc1ccccc1)NC(=O)[C@H](CC(C)C)NC(=O)[C@H](CCC(=O)O)NC(=O)[C@H](CS)NC(=O)[C@H](CC1CCCCC1)NC(=O)[C@H](CCCNC(=N)N)NC(=O)[C@@H](N)CC(N)=O)C(=O)N[C@@H](CCC(N)=O)C(=O)NCC(=O)N[C@H](C(=O)NCC(=O)N[C@@H](CC(=O)O)C(=O)N[C@H](C(=O)N[C@@H](CCCCN)C(=O)N[C@@H](C)C(=O)N[C@@H](CS)C(=O)N[C@@H](CCC(=O)O)C(=O)N[C@@H](Cc1c[nH]c2ccccc12)C(=O)N[C@@H](C)C(=O)N[C@@H](CS)C(=O)N[C@@H](CCC(N)=O)C(=O)O)C(C)C)[C@@H](C)O (H-NR[Cha]CELFCIQGTGDVKACEWACQ-OH)	11000 nM
CC[C@H](C)[C@H](NC(=O)[C@H](CS)NC(=O)[C@H](Cc1ccccc1)NC(=O)[C@H](CC(C)C)NC(=O)[C@H](CCC(=O)O)NC(=O)[C@H](CS)NC(=O)[C@H](Cc1ccc(Cl)cc1)NC(=O)[C@H](CCCNC(=N)N)NC(=O)[C@@H](N)CC(N)=O)C(=O)N[C@@H](CCC(N)=O)C(=O)NCC(=O)N[C@H](C(=O)NCC(=O)N[C@@H](CC(=O)O)C(=O)N[C@H](C(=O)N[C@@H](CCCCN)C(=O)N[C@@H](C)C(=O)N[C@@H](CS)C(=O)N[C@@H](CCC(=O)O)C(=O)N[C@@H](Cc1c[nH]c2ccccc12)C(=O)N[C@@H](C)C(=O)N[C@@H](CS)C(=O)N[C@@H](CCC(N)=O)C(=O)O)C(C)C)[C@@H](C)O (H-NR[Phe(4-Cl)]CELFCIQGTGDVKACEWACQ-OH)	2300 nM

Other lines, results leading:

Ki	Structure (SMILES)
4100 nM	CC[C@H](C)[C@H](NC(=O)[C@H](CS)NC(=O)[C@H](Cc1ccccc1)NC(=O)[C@H](CCSC)NC(=O)[C@H](CCC(=O)O)NC(=O)[C@H](CS)NC(=O)[C@H](Cc1ccccc1)NC(=O)[C@H](CCCNC(=N)N)NC(=O)[C@@H](N)CC(N)=O)C(=O)N[C@@H](CCC(N)=O)C(=O)NCC(=O)N[C@H](C(=O)NCC(=O)N[C@@H](CC(=O)O)C(=O)N[C@H](C(=O)N[C@@H](CCCCN)C(=O)N[C@@H](C)C(=O)N[C@@H](CS)C(=O)N[C@@H](CCC(=O)O)C(=O)N[C@@H](Cc1c[nH]c2ccccc12)C(=O)N[C@@H](C)C(=O)N[C@@H](CS)C(=O)N[C@@H](CCC(N)=O)C(=O)O)C(C)C)[C@@H](C)O (H-NRFCEMFCIQGTGDVKACEWACQ-OH)
2700 nM	CC[C@H](C)[C@H](NC(=O)[C@H](CS)NC(=O)[C@H](Cc1ccccc1)NC(=O)[C@H](CC(C)C)NC(=O)[C@H](CCCCN)NC(=O)[C@H](CS)NC(=O)[C@H](Cc1ccccc1)NC(=O)[C@H](CCCNC(=N)N)NC(=O)[C@@H](N)CC(N)=O)C(=O)N[C@@H](CCC(N)=O)C(=O)NCC(=O)N[C@H](C(=O)NCC(=O)N[C@@H](CC(=O)O)C(=O)N[C@H](C(=O)N[C@@H](CCCCN)C(=O)N[C@@H](C)C(=O)N[C@@H](CS)C(=O)N[C@@H](CCC(=O)O)C(=O)N[C@@H](Cc1c[nH]c2ccccc12)C(=O)N[C@@H](C)C(=O)N[C@@H](CS)C(=O)N[C@@H](CCC(N)=O)C(=O)O)C(C)C)[C@@H](C)O (H-NRFCKLFCIQGTGDVKACEWACQ-OH)
2200 nM	CC[C@H](C)[C@H](NC(=O)[C@H](CS)NC(=O)[C@H](Cc1ccccc1)NC(=O)[C@H](CC(C)C)NC(=O)[C@H](CCC(=O)O)NC(=O)[C@H](CS)NC(=O)[C@H](Cc1ccccc1Cl)NC(=O)[C@H](CCCNC(=N)N)NC(=O)[C@@H](N)CC(N)=O)C(=O)N[C@@H](CCC(N)=O)C(=O)NCC(=O)N[C@H](C(=O)NCC(=O)N[C@@H](CC(=O)O)C(=O)N[C@H](C(=O)N[C@@H](CCCCN)C(=O)N[C@@H](C)C(=O)N[C@@H](CS)C(=O)N[C@@H](CCC(=O)O)C(=O)N[C@@H](Cc1c[nH]c2ccccc12)C(=O)N[C@@H](C)C(=O)N[C@@H](CS)C(=O)N[C@@H](CCC(N)=O)C(=O)O)C(C)C)[C@@H](C)O (H-NR[Phe(2-Cl)]CELFCIQGTGDVKACEWACQ-OH)
2500 nM	CC[C@H](C)[C@H](NC(=O)[C@H](CS)NC(=O)[C@H](Cc1ccccc1)NC(=O)[C@H](CC(C)C)NC(=O)[C@H](CCC(=O)O)NC(=O)[C@H](CS)NC(=O)[C@H](Cc1ccccc1)NC(=O)[C@H](CCCNC(=N)N)NC(=O)[C@@H](N)CO)C(=O)N[C@@H](CCC(N)=O)C(=O)NCC(=O)N[C@H](C(=O)NCC(=O)N[C@@H](CC(=O)O)C(=O)N[C@H](C(=O)N[C@@H](CCCCN)C(=O)N[C@@H](C)C(=O)N[C@@H](CS)C(=O)N[C@@H](CCC(=O)O)C(=O)N[C@@H](Cc1c[nH]c2ccccc12)C(=O)N[C@@H](C)C(=O)N[C@@H](CS)C(=O)N[C@@H](CCC(N)=O)C(=O)O)C(C)C)[C@@H](C)O (H-SRFCELFCIQGTGDVKACEWACQ-OH)
